Legend:
Assay in all cases: combination Emax (second highest fraction inhibited in the dose matrix, 72 h); higher = more inhibition; extreme values may be limits of the assay
[1] = test system: DG-75 (Burkitt's Lymphoma)
In short: (§1)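 Bliss excess equals the observed combination effect minus the expected value EA + EB − EA·EB, where EA and EB are the effects of each agent alone. Combination Emax is the second-highest inhibition within the matrix. Inhibition was scaled from CellTiter-Glo 2.0 luminescence, with 0 set by vehicle wells and 1 by blank wells, after 72 hours of two-drug dosing of cells plated in 1536-well plates.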

EW-18 (Ewing's Sarcoma) = test system: EW-18 (Ewing's Sarcoma)
In short: as §1

GI-1 (Glioblastoma) = test system: GI-1 (Glioblastoma)
In short: as §1

[2] = test system: HuP-T3 (Pancreatic Carcinoma)
In short: as §1

[3] = test system: KINGS-1 (Low Grade Glioma)
In short: as §1

[4] = test system: KLE (Endometrial Carcinoma)
In short: as §1

[5] = test system: KYSE-150 (Esophageal Squamous Cell Carcinoma)
In short: as §1

[6] = test system: KYSE-50 (Esophageal Squamous Cell Carcinoma)
In short: as §1

[7] = test system: LC4-1 (B-Lymphoblastic Leukemia)
In short: as §1

[8] = test system: MFE-319 (Endometrial Carcinoma)
In short: as §1

[9] = test system: NCI-H322M (Lung Adenocarcinoma)
In short: as §1

[10] = test system: NCI-H513 (Other Solid Carcinomas)
In short: as §1

[11] = test system: NCI-N87 (Gastric Carcinoma)
In short: as §1

NH-12 (Neuroblastoma) = test system: NH-12 (Neuroblastoma)
In short: as §1

[12] = test system: OCUM-1 (Gastric Carcinoma)
In short: as §1

[13] = test system: OVISE (Ovarian Carcinoma)
In short: as §1

[14] = test system: PF-382 (T-Lymphoblastic Leukemia)
In short: as §1

RPMI-7951 (Melanoma) = test system: RPMI-7951 (Melanoma)
In short: as §1

[15] = test system: SNU-C1 (Colorectal Carcinoma)
In short: as §1

[16] = test system: TGBC11TKB (Gastric Carcinoma)
In short: as §1

Q: `CCc1c2c(nc3ccc(O)cc13)-c1cc3c(c(=O)n1C2)COC(=O)[C@]3(O)CC` [SN-38] + O=C(c1cc(Cc2n[nH]c(=O)c3ccccc23)ccc1F)N1CCN(C(=O)C2CC2)CC1 [Olaparib] (first compound max 0.3 µM, 7x7, partner max 10 µM) was tested. Which “combination Emax” value [1] did it give?
A: 0.852

Q: What about the “combination Emax” value (EW-18 (Ewing's Sarcoma)) of the same compound?
A: 0.773

Q: What about the “combination Emax” value (GI-1 (Glioblastoma)) of the same compound?
A: 0.954

Q: What about the “combination Emax” value [2] of the same compound?
A: 0.683

Q: What about the “combination Emax” value [3] of the same compound?
A: 0.287

Q: And the “combination Emax” value [4]?
A: 0.453

Q: And the “combination Emax” value [5]?
A: 0.728

Q: What about the “combination Emax” value [6] of the same compound?
A: 0.269

Q: What about the “combination Emax” value [7] of the same compound?
A: 0.948

Q: What about the “combination Emax” value [8] of the same compound?
A: 0.301

Q: What about the “combination Emax” value [9] of the same compound?
A: 0.869

Q: And the “combination Emax” value [10]?
A: 0.615

Q: What about the “combination Emax” value [11] of the same compound?
A: 0.722

Q: And the “combination Emax” value (NH-12 (Neuroblastoma))?
A: 0.903

Q: And the “combination Emax” value [12]?
A: 0.645

Q: What about the “combination Emax” value [13] of the same compound?
A: 0.293

Q: And the “combination Emax” value [14]?
A: 1

Q: And the “combination Emax” value (RPMI-7951 (Melanoma))?
A: 0.948

Q: And the “combination Emax” value [15]?
A: 0.349

Q: And the “combination Emax” value [16]?
A: 0.792

Source: the supplement of paper PMC11061612
